Legend:
[1] = tested on: adult human bone marrow CD34+ cells; test: Cell cycle analysis by FACS (SG2M %); format: cell-based; details: for SG2M % 48 hours: 48 hours from the start of the experiment; for SG2M % 72 hours: 72 hours from the start of the experiment
Experimental: Table 4. TSA Increases the Number of Cycling Cells. Cell cycle analysis at 48 h and 72 h from the start of the experiment is shown. Cells were examined by FACS analysis for cell cycle. SG2M % indicates cells in active DNA synthesis and indicates cells that may be actively cycling. This increased cycling allows the incorporation of the hypomethylating agent 5azaD.

[2] = tested on: NOD/SCID mice; test: Hematopoietic colonies cloned from NOD/SCID mouse marrow 7 weeks after human grafts; format: in vivo; details: for Estimated Number of Human Colonies: % human cells multiplied by total number of colonies; for % Human Cells: pooled colonies stained for human CD45/CD33, grafts 7 weeks earlier
Experimental: After 7 weeks of passage in vivo of human grafts in NOD/SCID mice, marrow cells from mice were then plated in methylcellulose assays at 100,000 cells/plate as previously described. After 14 days of incubation the number of hematopoietic colonies were enumerated.
(§1) Mice were given 300cGy of total body gamma irradiation and human grafts were injected via the tail vein. Cytokines including SCF, IL-3 and GM-CSF at 5 ug/mouse were injected intraperitoneally on alternate days following injection of human grafts during the first week of transplant. Sulfamethoxazole (40 mg/mL) and Trimethoprim (8 mg/mL)(SMX/TMZ; Elkins-Sinn, Cherry Hill, N.J.) were added in the drinking water for 3 days post injection and then subsequently for 3 days beginning the second week of transplant. Mice were sacrificed after 7 weeks. Femurs and tibias were flushed with Hank's balanced salt solution (HBSS) (Biowhittiker) with 2% FBS (Hyclone) and 0.02% sodium azide and cell counts performed. Cells were preincubated with 1 mg/ml of human gamma globulin in staining to block human Fc receptors. Murine Fc receptors were blocked by a second incubation of the cells in 2.4G2 (an anti-mouse Fc receptor moAb). Marrow cells were analyzed by flow cytometry to detect human cell engraftment as previously described.^29 Briefly to quantitate the total number of human cells present an aliquot of cells was stained with anti-CD45-FITC(BD) and anti-CD71-FITC(BD). This aliquot was also stained with anti-CD19-PE(BD) and cyanine-5-succinimidyl-labeled anti-CD34 (BD). After 7 weeks, marrow cells were plated in methylcellulose as previously described. Colonies from these CFC were then pooled and stained with moAb against CD33 and CD45 (BD) to assess the presence of human cells.

[3] = tested on: adult human bone marrow CD34+ cells; test: Cobblestone area-forming cell (CAFC) assay in limiting dilution; format: cell-based; details: for CAFC/10,000 Cells: after 9 days of culture, unfractionated, cobblestone areas counted after 5 weeks
Experimental: The ability of primitive HSC to form cobblestone areas (CA) in long term marrow cultures has been used as an in vitro surrogate progenitor HSC assay (Breems et al., Leukemia, 8:1095-1104, 1994, Lefkovits et al., Immunol. Today, 5:265-268, 1984; Cross et al., Curr. Opin. Genet. Dev., 5:609-613, 1997). CD34^+ cells after 9 days of culture from each condition were plated in limiting dilution in flat-bottomed 96-well plates (Costar) onto confluent, irradiated (7000cGy) monolayers of the murine stromal fibroblast line M2-10B4 (a gift from Dr. C. Eaves, Vancouver, BC, Canada). Each well contained 200 μL of a 50:50 mixture of IMDM and RPMI with 10% FBS. A cocktail of growth factors, including 100 ng/mL SCF, 100 ng/mL leukemia inhibitory factor (LIF), 50 ng/mL IL-3, 50 ng/mL IL-6 and 50 ng/mL granulocyte-monocyte colony stimulating factor (GM-CSF) (Amgen, Thousand Oaks, Calif.).
The cultures were fed weekly by replacement of one half of the culture volume with fresh medium containing the above cytokines at 2 times the previously defined concentration. After 5 weeks of culture in a humidified incubator at 37° C. containing 5% CO2, the number of CA were ennumerated. The CAFC frequency was computed by means of minimization of chi regression to the cell number at which 37% of wells were negative for CA formation, with 95% statistical precision using L-Calc (Limiting dilution calculation) software (Stem Cell Inc., Vancouver, Canada; Lefkovits et al., Curr. Opin. Genet. Dev. 5:609-613, 1997).

[4] = tested on: NOD/SCID mice; test: Marrow repopulation assay of human cell grafts in NOD/SCID mice; format: in vivo; details: cells after 9 days of culture with cytokines; 7 weeks
Experimental: A colony of immunodeficient nonobese diabetic/ltsz-scid/scid (NOD/SCID) mice were purchased from the Jackson Laboratories (Bar Harbor, Me.) and were maintained as previously described (Coneallt et al., Proc. Nat'l Acad. Sci. USA, 94:9836-41, 1997). All NOD/SCID mice were kept under sterile conditions in the microisolator cages and were provided with autoclaved food and acidified water.
as §1, with “Cells were preincubated with 1 mg/ml of human gamma globulin in staining to block human Fc receptors. Murine Fc receptors were blocked by a second incubation of the cells in 2.4G2 (an anti-mouse Fc receptor moAb).” left out, “This aliquot was also stained with anti-CD19-PE(BD) and cyanine-5-succinimidyl-labeled anti-CD34 (BD). After 7 weeks, marrow cells were plated in methylcellulose as previously described. Colonies from these CFC were then pooled and stained with moAb against CD33 and CD45 (BD) to assess the presence of human cells.” left out

| SMILES | SG2M % 48 hours [1] [%] | SG2M % 72 hours [1] [%] | Estimated Number of Human Colonies [2] | % Human Cells [2] [%] | numbers of CAFC relative to cytokines alone ([3]; 9 days with cytokines) | CAFC/10,000 Cells [3] | marrow repopulating activity: engraftment and multilineage differentiation [4] | secondary hematopoietic colonies from marrow of grafted mice ([2]; plated in semisolid media with human cytokines) | fold increase in the number of CAFC over the primary cells ([3]; 9 days with cytokines) [fold] |
| --- | --- | --- | --- | --- | --- | --- | --- | --- | --- |
| CC(/C=C/C(=O)NO)=C\[C@@H](C)C(=O)c1ccc(N(C)C)cc1 [TSA, Trichostatin A] | 36 | 41.6 | 0 | 0 | comparable numbers of CAFC as cultures receiving cytokines alone | 16 CAFC/10,000 cells | no longer possessed such marrow repopulating activity |  |  |
| Nc1ncn([C@H]2C[C@H](O)[C@@H](CO)O2)c(=O)n1 [5azaD, 5-aza2′deoxycitidine] | 36.5 | 35.5 | 9 | 12 |  | 96 CAFC/10,000 cells | retained the ability to engraft NOD/SCID mice | formed significant numbers of secondary hematopoietic colonies | 1.9 |

— patent US7927785B2, “Methods for in vitro expansion of hematopoietic stem cells” (The Board of Trustees of the University of Illinois, priority 2002, dated 2011)
